Assay results as given in ChEMBL document CHEMBL1157918, “The development and SAR of pyrrolidine carboxamide 11beta-HSD1 inhibitors” (Bioorg Med Chem Lett, 2010).

How the values were obtained:
in vitro = details: human, liver microsomes
Description: Intrinsic clearance in human liver microsomes

Mus musculus [1] = species on record: Mus musculus; assay: animal or person; details: C57BL, Plasma, po, read-out: INH
Description: Inhibition of 11-beta-HSD1 in C57BL mouse assessed as reduction of plasma cortisol level at 10 mg/kg, po administered 30 mins before cortisone challenge measured after 60 mins by ELISA relative to control

Mus musculus [2] = species on record: Mus musculus; assay: animal or person; details: C57BL, Plasma, po, read-out: INH; remark: listed apart in the source
Description: Inhibition of 11-beta-HSD1 in C57BL mouse assessed as reduction of plasma cortisol level at 1 mg/kg, po administered 30 mins before cortisone challenge measured after 60 mins by ELISA relative to control

Mus musculus [3] = species on record: Mus musculus; assay: animal or person; details: C57BL, Plasma, po, read-out: INH; remark: listed apart in the source
Description: Inhibition of 11-beta-HSD1 in C57BL mouse assessed as reduction of plasma cortisol level at 3 mg/kg, po administered 30 mins before cortisone challenge measured after 60 mins by ELISA relative to control

Mus musculus [4] = species on record: Mus musculus; assay: animal or person; details: C57BL, Plasma, po, read-out: INH; remark: listed apart in the source
Description: Inhibition of 11-beta-HSD1 in C57BL mouse assessed as reduction of plasma cortisol level at 100 mg/kg, po administered 30 mins before cortisone challenge measured after 60 mins by ELISA relative to control

Mus musculus [5] = species on record: Mus musculus; assay: animal or person; details: C57BL, Plasma, po, read-out: INH; remark: listed apart in the source
Description: Inhibition of 11-beta-HSD1 in C57BL mouse assessed as reduction of plasma cortisol level at 30 mg/kg, po administered 30 mins before cortisone challenge measured after 60 mins by ELISA relative to control

| CLint scaled (in vitro) [mL/min/kg] | SMILES | also measured |
| --- | --- | --- |
| 73.2 | N#Cc1ccc(CN2CCC[C@@H]2C(=O)NC2C3CC4CC(C3)CC2C4)cc1 (some centres not stated) |  |
| 79.2 | O=C(NC1C2CC3CC(C2)CC1C3)[C@H]1CCCN1c1ccccn1 (some centres not stated) |  |
| 62.8 | O=C(NC1C2CC3CC(C2)CC1C3)[C@H]1CCCN1CC1CCCCC1 (some centres not stated) |  |
| 86.2 | O=C(NC1C2CC3CC(C2)CC1C3)[C@H]1CCCN1CC1(O)CCCC1 (some centres not stated) |  |
| 22.2 | CN1CCC[C@@H]1C(=O)NC1C2CC3CC(C2)CC1C3 (some centres not stated) |  |
| 75.3 | O=C(NC1C2CC3CC(C2)CC1C3)[C@H]1CCCN1CC1CCCC1 (some centres not stated) |  |
| 85.8 | O=C(NC1C2CC3CC(C2)CC1C3)[C@H]1CCCN1CC1CCC1 (some centres not stated) |  |
| 93.3 | CCCN1CCC[C@@H]1C(=O)NC1C2CC3CC(C2)CC1C3 (some centres not stated) |  |
| 20.3 | O=C(NC1C2CC3CC(C2)CC1C3)[C@H]1CCCN1CC1CCOCC1 (some centres not stated) |  |
| 64.6 | O=C(NC1C2CC3CC(C2)CC1C3)[C@H]1CCCN1CC1(O)CCCCC1 (some centres not stated) |  |
| 43.9 | CCN1CCC[C@@H]1C(=O)NC1C2CC3CC(C2)CC1C3 (some centres not stated) | inhibition in vivo at 10 mg/kg (Mus musculus [1]): 23%; inhibition in vivo at 1 mg/kg (Mus musculus [2]): 52%; inhibition in vivo at 3 mg/kg (Mus musculus [3]): 46%; inhibition in vivo at 100 mg/kg (Mus musculus [4]): 18%; inhibition in vivo at 30 mg/kg (Mus musculus [5]): 20% |
| 79.3 | CC(C)CN1CCC[C@@H]1C(=O)NC1C2CC3CC(C2)CC1C3 (some centres not stated) |  |
